Laboratory results: paper PMC9125540 (Virology Journal, 2022)
Structures can show the parent of a compound that is named as a salt. Where two headings read alike, the source gives them in different places.

Assays:
TNF-α [1] = type: cell-based, Canine; details: combination treatment (co-penetration) with H1N1, 72 h; H1N1 alone 191.00 fold
IAV M gene = type: cell-based, influenza A virus
IL-6 [2] = type: cell-based, Canine; details: combination treatment (co-penetration) with H1N1, 72 h; H1N1 alone 16.622 fold
TNF-α [3] = assay: ELISA cytokine protein quantification, TNF-α; type: cell-based, Canine
Protocol: (§1) MDCK cells were treated as mentioned above. Untreated cells were considered as the negative control. Cell-free supernatant was harvested following 72 h infection period and stored at − 80 °C for the cytokine analysis. In order to investigate the effect of viral infection and anionic compounds on the production of inflammatory cytokines such as IL-6, CCL2 and TNF-α as well as anti-inflammatory cytokine proteins IFN-β1 and IL-27, ELISA method was utilized. Quantitative sandwich Picokine ELISA kits (Boster Biological Technology, CA, USA) were used to detect IL-6, TNF-α and IL-27 cytokine proteins according to the manufacturer's instructions. The CCL2 and IFN-β were evaluated by sandwich Ready-SET-Go kit (Invitrogen, USA) and sandwich geneILNB1 kit (EIAab Science Co, China) according to the manufacturers’ instructions, respectively. The concentrations of the cytokines were calculated according to the corresponding reaction standard formula.
(§2) The cytokine protein levels in supernatants of MDCK cell culture at 72 h after exposure were calculated according to the reaction standard formula.
(§3) To calculate the concentration of the cytokines in cell free supernatants, firstly, the standards optical densities were measured and the standard curves were plotted. The equations of standard curves were used to estimate protein concentration in the samples.

IFN- β = assay: ELISA cytokine protein quantification, IFN-β; type: cell-based, Canine
Protocol: as §1, §2, §3

IFN-β1 = type: cell-based, Canine; details: combination treatment (co-penetration) with H1N1, 72 h; H1N1 alone 0.038 fold
CCL2 [4] = type: cell-based, Canine; details: combination treatment (co-penetration) with H1N1, 72 h; H1N1 alone 22.123 fold
IL-6 [5] = assay: ELISA cytokine protein quantification, IL-6; type: cell-based, Canine
Protocol: as §1, §2, §3

IL-27 [6] = type: cell-based, Canine; details: combination treatment (co-penetration) with H1N1, 72 h; H1N1 alone 0.004 fold
IL-27 [7] = assay: ELISA cytokine protein quantification, IL-27; type: cell-based, Canine
Protocol: as §1, §2, §3

MDCK cells = assay: MTT cytotoxicity assay of the compounds (CC50, NCTC, selectivity index); details: MDCK cells, MTT, 48 h
Protocol: (§4) The cytotoxic effects of the anionic compounds on the viability of MDCK cells was measured by MTT [3-(4, 5-dimethylthiazol-2ol) 2, 5 diphenyl tetrazolium bromide] assay. Briefly, the confluent 96-well plate of MDCK cells were exposed to twofold serial dilutions of the compounds (in triplicates), 100 μl/well, and incubated for 48 h. After the incubation period, the supernatants were removed and 100 μl of 1X MTT solution (100 μl/well) was added to each well. The plates were incubated for 4 h at 37 °C. Then, 100 μl of DMSO (Samchun, Korea) was added to dissolve formazan crystals. Color adsorption in the solution was measured using an enzyme-linked immunosorbent assay (ELISA) reader (StataFax 2100, USA) at 570 nm to calculate the 50% cytotoxic concentration (CC50). The cells without treatment were used as negative control. The percentage of toxicity was calculated using the following formula:
(§5) Toxicity (%) = [100 − (ODT/ODC) × 100], where ODT and ODC refer to the absorbance of the test substance and control, respectively [34]. The 50% cytotoxic concentration (CC50) was defined as the cytotoxic concentration of compounds by regression analysis.
(§6) The non-cytotoxic concentration (NCTC) of the compounds was also determined using the same procedure and used for the antiviral assays. […] The cells with no treatment were considered as negative control.
(§7) The selectivity index (SI) is relative safety of a compound and it was obtained by dividing CC50 by NCTC in the same units.

CCL2 [8] = assay: ELISA cytokine protein quantification, CCL2; type: cell-based, Canine
Protocol: as §1, §2, §3

[9] = MTT cytotoxicity assay of the compounds (CC50, NCTC, selectivity index); details: dog
Protocol: as §4, §5, §6, §7

[10] = co-penetration with H1N1, MDCK supernatant, 72 h, H1N1 alone 523.00 ± 2.41
[11] = co-penetration with H1N1, MDCK supernatant, 72 h, H1N1 alone 26.25 ± 1.77
[12] = co-penetration with H1N1, MDCK supernatant, 72 h, H1N1 alone 941.67 ± 4.71
[13] = co-penetration with H1N1, MDCK supernatant, 72 h, H1N1 alone 1243.79 ± 5.58

In the case of CC(=O)[O-].[Na+] [Acetate, sodium acetate], the TNF-α relative expression (TNF-α [1]) is reported as 4.83 fold, the “Ct value, IAV M gene” value (IAV M gene) is reported as 20.70 ± 0.30 and the IL-6 relative expression (IL-6 [2]) is reported as 0.020 fold. For the same molecule, the “TNF-α cytokine protein concentration (mean ± SD)” value (TNF-α [3]) was 222.20 ± 0.64 pg/mL, the “percentage of change of TNF-α protein relative to H1N1 (mean ± SD)” value (TNF-α [3]; co-penetration, 72 h) was -57.51 ± 0.32 and the “IFN- β cytokine protein concentration (mean ± SD)” value (IFN- β) was 68.96 ± 2.06 pg/mL. For the same molecule, the “percentage of change of IFN- β protein relative to H1N1 (mean ± SD)” value (IFN- β; co-penetration, 72 h) was 163.03 ± 9.86, the “IFN- β1 relative expression” value (IFN-β1) was 0.049 fold and the CCL2 relative expression (CCL2 [4]) was 0.094 fold. For the same molecule, the “IL-6 cytokine protein concentration (mean ± SD)” value (IL-6 [5]) was 110.64 ± 0.08 pg/mL, the IL-27 relative expression (IL-27 [6]) was 0.099 fold and the “IL-27 cytokine protein concentration (mean ± SD)” value (IL-27 [7]) was 1938.33 ± 0.00 pg/mL. The “percentage of change of IL-27 protein relative to H1N1 (mean ± SD)” value (IL-27 [7]; co-penetration, 72 h) was 105.84 ± 1.03, the CC50 (MDCK cells) was 28950 ± 4320 µg/mL and the “NCTC (non-cytotoxic concentration)” value (MDCK cells) was 3.00 ± 0.00 mg/mL. The “NCTC (non-cytotoxic concentration)” value (MDCK cells; listed as acetate) was 3 mg/mL, the “CCL2 cytokine protein concentration (mean ± SD)” value (CCL2 [8]) was 338.26 ± 0.00 pg/mL and the “percentage of change of CCL2 protein relative to H1N1 (mean ± SD)” value (CCL2 [8]; co-penetration, 72 h) was -72.80 ± 0.12.
With NC12CC3CC(CC(C3)C1)C2 [Amantadine hydrochloride, reference compound] the “NCTC (non-cytotoxic concentration)” value (MDCK cells) was 0.10 ± 0.00 mg/mL and the CC50 at 48 h [9] was 200 ± 1530 µg/mL.
For O=C1O[C@H]([C@@H](O)CO)C(O)=C1O [Ascorbate, ascorbic acid], the “Ct value, IAV M gene” value (IAV M gene; combination treatment with H1N1, supernatants of 48 h treatments, H1N1 alone 12.76 ± 0.24) was “No Ct value was detected”, the “TNF-α cytokine protein concentration (mean ± SD)” value (TNF-α [3]; [10]) was 284.25 ± 0.32 pg/mL and the “IFN- β cytokine protein concentration (mean ± SD)” value (IFN- β; [11]) was 73.75 ± 1.77 pg/mL. For the same molecule, the “IFN- β cytokine protein concentration (mean ± SD)” value (IFN- β; co-penetration with H1N1, MDCK supernatant, 72 h, H1N1 alone 26.25 ± 1.77, listed as Asc) was 73.75 ± 1.77 pg/mL, the “IL-6 cytokine protein concentration (mean ± SD)” value (IL-6 [5]; co-penetration with H1N1, MDCK supernatant, 72 h, H1N1 alone 171.78 ± 0.17) was 38.05 ± 0.17 pg/mL and the “IL-27 cytokine protein concentration (mean ± SD)” value (IL-27 [7]; [12]) was 1833.33 ± 2.36 pg/mL. The “CCL2 cytokine protein concentration (mean ± SD)” value (CCL2 [8]; [13]) was 309.05 ± 1.86 pg/mL and the “CCL2 cytokine protein concentration (mean ± SD)” value (CCL2 [8]; co-penetration with H1N1, MDCK supernatant, 72 h, H1N1 alone 1243.79 ± 5.58, listed as Asc) was 309.05 ± 1.86 pg/mL.
In the case of O=C(O)CC(O)(CC(=O)O)C(=O)O [Citrate, sodium citrate], the “Ct value, IAV M gene” value (IAV M gene) is reported as 22.45 ± 0.75, the “TNF-α cytokine protein concentration (mean ± SD)” value (TNF-α [3]; [10]) is reported as 253.45 ± 0.48 pg/mL and the “IFN- β cytokine protein concentration (mean ± SD)” value (IFN- β; [11]) is reported as 70.62 ± 2.06 pg/mL. The “IL-6 cytokine protein concentration (mean ± SD)” value (IL-6 [5]; co-penetration with H1N1, MDCK supernatant, 72 h, H1N1 alone 171.78 ± 0.17, listed as Cit) was 126.60 ± 0.17 pg/mL, the “IL-27 cytokine protein concentration (mean ± SD)” value (IL-27 [7]; [12]) was 2055.00 ± 0.00 pg/mL and the “IL-27 cytokine protein concentration (mean ± SD)” value (IL-27 [7]; co-penetration with H1N1, MDCK supernatant, 72 h, H1N1 alone 941.67 ± 4.71, listed as Cit) was 2055.00 ± 0.00 pg/mL. The “NCTC (non-cytotoxic concentration)” value (MDCK cells) was 3.00 ± 0.00 mg/mL, the “NCTC (non-cytotoxic concentration)” value (MDCK cells; listed as citrate) was 3 mg/mL and the “CCL2 cytokine protein concentration (mean ± SD)” value (CCL2 [8]; [13]) was 446.95 ± 0.37 pg/mL.
